Assay results from ChEMBL document CHEMBL5053534, “Germacrane sesquiterpenes from leaves of Eupatorium chinense inhibit protein tyrosine phosphatase” (Bioorg Med Chem Lett, 2021).

Assays:
[1] = molecular target: T1, Tyrosine-protein phosphatase non-receptor type 1 (Homo sapiens, UniProt P18031); test: Inhibition of human recombinant PTP1B using pNPP as substrate assessed as reduction in p-nitrophenol release incubated for 30 mins by absorbance based analysis
T1 sequence (P18031 whole entry): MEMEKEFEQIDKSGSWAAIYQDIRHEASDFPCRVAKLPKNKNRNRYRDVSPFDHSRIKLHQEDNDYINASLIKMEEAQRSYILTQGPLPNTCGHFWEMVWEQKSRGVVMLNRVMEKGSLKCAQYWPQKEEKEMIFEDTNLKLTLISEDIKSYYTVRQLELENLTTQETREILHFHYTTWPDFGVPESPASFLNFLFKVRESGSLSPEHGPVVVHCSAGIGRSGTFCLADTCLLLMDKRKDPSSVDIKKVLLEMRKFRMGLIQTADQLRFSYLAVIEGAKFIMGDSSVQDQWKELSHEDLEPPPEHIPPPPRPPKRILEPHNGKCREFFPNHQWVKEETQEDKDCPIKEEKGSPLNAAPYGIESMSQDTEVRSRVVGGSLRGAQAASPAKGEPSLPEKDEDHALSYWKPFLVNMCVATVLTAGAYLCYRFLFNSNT

[2] = molecular target: T2, Tyrosine-protein phosphatase non-receptor type 2 (Homo sapiens, UniProt P17706); test: Inhibition of human recombinant TCPTP using pNPP as substrate assessed as reduction in p-nitrophenol release incubated for 30 mins by absorbance based analysis
T2 sequence (P17706 whole entry): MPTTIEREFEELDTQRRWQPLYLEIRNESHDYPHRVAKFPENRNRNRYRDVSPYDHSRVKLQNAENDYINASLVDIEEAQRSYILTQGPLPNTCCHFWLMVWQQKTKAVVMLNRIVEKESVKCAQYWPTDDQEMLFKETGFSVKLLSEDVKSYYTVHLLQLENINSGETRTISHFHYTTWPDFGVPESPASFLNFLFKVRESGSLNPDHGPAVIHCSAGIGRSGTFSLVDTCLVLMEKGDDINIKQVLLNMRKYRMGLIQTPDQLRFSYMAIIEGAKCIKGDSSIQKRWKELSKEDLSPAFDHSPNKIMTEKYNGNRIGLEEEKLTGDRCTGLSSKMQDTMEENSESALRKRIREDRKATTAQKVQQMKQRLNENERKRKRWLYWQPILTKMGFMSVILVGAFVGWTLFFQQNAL

Row | Compound | IC50 [1] | IC50 [2]
1 | C=C1C(=O)O[C@@H]2/C=C(\C)CC/C=C(\C)C[C@@H](OC(=O)/C(=C/C)COC(C)=O)[C@@H]12 | > 25 µM | > 25 µM
2 | C=C1C(=O)O[C@@H]2/C=C(\C)CC/C=C(\CO)C[C@@H](OC(=O)/C(C)=C/C)[C@@H]12 | > 25 µM | > 25 µM
3 | C=C1C(=O)O[C@@H]2/C=C(\C)C[C@H](O)/C=C(\C)C[C@@H](OC(=O)/C(=C\C)COC(C)=O)[C@@H]12 | > 25 µM | > 25 µM
4 | C=C1C(=O)O[C@@H]2/C=C(\C)C[C@H](O)/C=C(\C)C[C@@H](OC(=O)/C(=C\C)CO)[C@@H]12 | 28 µM | > 28 µM
5 | C=C1C(=O)O[C@@H]2/C=C(\C)CC/C=C(\C)C[C@@H](OC(=O)/C(=C/CO)CO)[C@@H]12 | > 28 µM | > 28 µM

Second part, the compound after the results:

Row | IC50 [1] | IC50 [2] | Compound
6 | 11 µM | 25 µM | C=C1C(=O)O[C@@H]2/C=C(\C)CC/C=C(\C)C[C@@H](OC(=O)/C(=C\C)CO)[C@@H]12
7 | 25 µM | > 25 µM | C=C1C(=O)O[C@@H]2/C=C(\C)[C@@H](O)C/C=C(\C)C[C@@H](OC(=O)/C(=C\C)COC(C)=O)[C@@H]12
8 | > 29 µM | > 29 µM | C=C1C(=O)O[C@@H]2/C=C(\C)CC/C=C(\C)C[C@@H](OC(=O)/C(=C\COC(C)=O)CO)[C@@H]12
9 | > 29 µM | > 29 µM | C=C1C(=O)O[C@@H]2/C=C(\C)CC/C=C(\C)C[C@@H](OC(=O)/C(=C/C)CO)[C@@H]12
